For orientation: IC50 means the midpoint of a concentration-inhibition curve.

We go through 17 compounds from patent US12059422B2 (MEI Pharma, Inc., priority 2011, dated 2024).

A value given as a limit tells only on which side of the number the result lay.

Experiment [1] addresses T1, PI3K beta (Homo sapiens, UniProt P42338).
T1 construct: purchased Millipore, Billerica, MA, USA
Kind of experiment: Luciferase-based luminescence assay (ADP Glo), PI3K beta enzymatic activity. It counts as biochemical. The settings on record: for IC50: inhibition of enzymatic activity, ADP Glo, 25 μM ATP, read-out: IC50 p110β; for α/β ratio: ratio of enzymatic IC50 values, Table 1. An outline of the steps:
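Final enzyme 4.8 nM PI3K beta or 7.6 nM PI3K gamma, with 50 μM PIP2 and 25 μM ATP, 1 h in HEPES pH 7.5 buffer with MgCl2, EGTA, NaCl, CHAPS and DTT. ADP formed measured by ADP-Glo luminescence; IC50 from 10-point curve fits.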

In experiment [2] the target is PI3Kα (Homo sapiens, UniProt P42336). Kind of experiment: ELISA assay for PI3Kα: in-cell ELISA, phosphorylation of AKT (Thr308) in MDA-MB-453 cells. It counts as cell-based. The settings on record: cellular, pAKT (Thr308), IGF-1 stimulation, read-out: IC50 p110α. As to the method:
PI3K alpha (PI3Kα) activity was determined by measuring the phosphorylation of AKT (Thr308) using an in-cell ELISA assay. MDA-MB-453 (breast carcinoma) cells were obtained from ATCC (ATCC #HTB-131). Growth medium was DMEM (CellGro #CV-10-013-CV) supplemented with 10% fetal bovine serum, 100 IU/mL penicillin, 100 μg/mL streptomycin, and 1×MEM non-essential amino acids. Phosphate buffered saline (PBS) contained 2.7 M NaCl, 54 mM KCl, 86 mM […] (dibasic, anhydrous), and 28 mM […] (monobasic, anhydrous) at pH 7.2. Stimulation mixture (10×) was 1000 ng/mL LONG® R^3 human IGF-1 (Sigma #I1271) diluted in serum-free DMEM medium (CellGro #CV-10-013-CV). Compounds for testing were dissolved and serially diluted in 100% DMSO (total of 10 concentrations), then diluted in serum-free DMEM to 2× final assay concentration. Fixative solution (2×) was 8% formaldehyde (Amresco #M134) diluted in PBS. Permeabilization solution was PBS supplemented with 0.1% Triton X-100. Blocking buffer was obtained from LiCor (LiCor #927-40000). Wash buffer was PBS supplemented with 0.1% Tween-20. Primary antibody solution was rabbit anti-pAKT^T308 monoclonal antibody (Cell Signaling #2965) and mouse anti-total S6 (Santa Cruz #74459) diluted 1:500 and 1:2000, respectively, in the blocking buffer. Secondary antibody solution was IRDye 800CW-conjugated goat anti-rabbit IgG (LiCor #926-32211) and IRDye 680LT-conjugated goat anti-mouse IgG (LiCor #926-68020) diluted 1:1000 and 1:2000, respectively, in the blocking buffer.
MDA-MB-453 cells were subcultured in growth medium and seeded into flat, clear bottom, 96-well plates (Corning #3904) at 40000 cells/well, then incubated overnight in a 5% CO2 incubator at 37° C. Growth medium in plates was replaced with 100 μL/well serum-free DMEM and incubated overnight at 37° C. in a 5% CO2 incubator. Fresh serum-free DMEM (50 μL/well) was added to plates. Compound treatment was performed by adding 50 μL/well of 2× compound mixture to plates and incubating for 1 hr at 37° C. and 5% CO2, after which 11 μL/well of 10× stimulation mixture was added and plates were incubated for 10 min at 37° C. and 5% CO2. Fixation was performed by adding 110 μL/well of 2× fixative solution to the plates and incubating for 20 min at room temperature. Permeabilization was performed by replacing fixation solution with 150 μL/well permeabilization solution and incubating for 10 min at room temperature. Permeabilization was repeated (for a total of 2 times). Permeabilization solution was replaced with 100 μL/well blocking buffer and plates were incubated for 1 hour at room temperature, after which 100 μL/well of primary antibody solution was added and plates were incubated overnight at 4° C. Plates were washed with wash buffer, after which 100 μL/well of secondary antibody solution was added to the plates and incubated in the dark for 1 hr at room temperature. Plates were washed with wash buffer, followed by a wash with PBS. After completely removing PBS, plates were scanned on the Licor Odyssey Imager. Images were quantified using Licor Odyssey application software. IC50 values were determined by curve fitting using a Collaborative Drug Discovery database (www.collaborativedrug.com).

Sequence of PI3Kα (P27986 2-724): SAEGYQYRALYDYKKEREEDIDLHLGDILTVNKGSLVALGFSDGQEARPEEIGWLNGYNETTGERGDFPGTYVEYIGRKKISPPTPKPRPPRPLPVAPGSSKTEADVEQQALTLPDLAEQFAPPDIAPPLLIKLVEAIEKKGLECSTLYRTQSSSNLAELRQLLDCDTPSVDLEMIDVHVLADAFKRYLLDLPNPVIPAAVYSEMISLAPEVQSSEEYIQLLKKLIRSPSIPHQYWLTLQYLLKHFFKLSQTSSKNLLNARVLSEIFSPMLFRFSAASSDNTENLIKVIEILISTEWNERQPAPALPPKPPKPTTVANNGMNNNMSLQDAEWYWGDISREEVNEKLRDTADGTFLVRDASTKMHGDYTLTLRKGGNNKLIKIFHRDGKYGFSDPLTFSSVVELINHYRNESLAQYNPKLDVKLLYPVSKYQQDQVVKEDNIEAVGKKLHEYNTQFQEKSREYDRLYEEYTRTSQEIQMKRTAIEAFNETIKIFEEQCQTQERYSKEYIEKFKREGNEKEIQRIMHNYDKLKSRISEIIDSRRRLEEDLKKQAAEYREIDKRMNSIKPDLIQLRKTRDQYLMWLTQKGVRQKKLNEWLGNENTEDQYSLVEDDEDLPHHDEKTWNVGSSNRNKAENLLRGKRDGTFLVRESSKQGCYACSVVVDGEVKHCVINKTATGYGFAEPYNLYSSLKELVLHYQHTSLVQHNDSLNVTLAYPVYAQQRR
Sequence of PI3Kα (P42336 whole entry): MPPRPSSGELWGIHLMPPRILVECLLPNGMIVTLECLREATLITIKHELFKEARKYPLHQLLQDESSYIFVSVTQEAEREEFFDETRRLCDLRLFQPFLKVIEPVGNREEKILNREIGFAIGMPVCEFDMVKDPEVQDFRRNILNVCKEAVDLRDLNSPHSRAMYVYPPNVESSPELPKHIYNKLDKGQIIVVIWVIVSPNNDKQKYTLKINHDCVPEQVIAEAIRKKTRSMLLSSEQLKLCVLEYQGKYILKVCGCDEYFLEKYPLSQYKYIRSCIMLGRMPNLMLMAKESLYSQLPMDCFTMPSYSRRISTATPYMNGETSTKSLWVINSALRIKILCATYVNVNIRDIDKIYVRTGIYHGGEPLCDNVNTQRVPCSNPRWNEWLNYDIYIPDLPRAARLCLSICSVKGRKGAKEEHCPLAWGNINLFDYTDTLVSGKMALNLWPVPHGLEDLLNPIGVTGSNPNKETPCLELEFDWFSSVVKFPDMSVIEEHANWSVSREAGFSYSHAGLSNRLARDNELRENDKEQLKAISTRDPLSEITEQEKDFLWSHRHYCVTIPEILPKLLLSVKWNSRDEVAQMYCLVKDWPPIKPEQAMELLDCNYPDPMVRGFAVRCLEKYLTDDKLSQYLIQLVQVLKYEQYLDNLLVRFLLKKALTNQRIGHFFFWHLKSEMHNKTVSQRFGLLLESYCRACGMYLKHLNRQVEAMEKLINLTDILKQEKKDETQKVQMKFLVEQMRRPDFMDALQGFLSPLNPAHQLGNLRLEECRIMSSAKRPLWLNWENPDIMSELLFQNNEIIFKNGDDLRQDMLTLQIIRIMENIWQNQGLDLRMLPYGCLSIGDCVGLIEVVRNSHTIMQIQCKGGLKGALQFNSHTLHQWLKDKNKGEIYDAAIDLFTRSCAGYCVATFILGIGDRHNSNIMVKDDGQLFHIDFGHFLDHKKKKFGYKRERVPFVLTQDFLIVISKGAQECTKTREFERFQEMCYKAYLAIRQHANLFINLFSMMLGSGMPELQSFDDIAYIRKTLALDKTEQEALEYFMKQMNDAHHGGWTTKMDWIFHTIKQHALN
T1 sequence (P42338 whole entry, species assumed): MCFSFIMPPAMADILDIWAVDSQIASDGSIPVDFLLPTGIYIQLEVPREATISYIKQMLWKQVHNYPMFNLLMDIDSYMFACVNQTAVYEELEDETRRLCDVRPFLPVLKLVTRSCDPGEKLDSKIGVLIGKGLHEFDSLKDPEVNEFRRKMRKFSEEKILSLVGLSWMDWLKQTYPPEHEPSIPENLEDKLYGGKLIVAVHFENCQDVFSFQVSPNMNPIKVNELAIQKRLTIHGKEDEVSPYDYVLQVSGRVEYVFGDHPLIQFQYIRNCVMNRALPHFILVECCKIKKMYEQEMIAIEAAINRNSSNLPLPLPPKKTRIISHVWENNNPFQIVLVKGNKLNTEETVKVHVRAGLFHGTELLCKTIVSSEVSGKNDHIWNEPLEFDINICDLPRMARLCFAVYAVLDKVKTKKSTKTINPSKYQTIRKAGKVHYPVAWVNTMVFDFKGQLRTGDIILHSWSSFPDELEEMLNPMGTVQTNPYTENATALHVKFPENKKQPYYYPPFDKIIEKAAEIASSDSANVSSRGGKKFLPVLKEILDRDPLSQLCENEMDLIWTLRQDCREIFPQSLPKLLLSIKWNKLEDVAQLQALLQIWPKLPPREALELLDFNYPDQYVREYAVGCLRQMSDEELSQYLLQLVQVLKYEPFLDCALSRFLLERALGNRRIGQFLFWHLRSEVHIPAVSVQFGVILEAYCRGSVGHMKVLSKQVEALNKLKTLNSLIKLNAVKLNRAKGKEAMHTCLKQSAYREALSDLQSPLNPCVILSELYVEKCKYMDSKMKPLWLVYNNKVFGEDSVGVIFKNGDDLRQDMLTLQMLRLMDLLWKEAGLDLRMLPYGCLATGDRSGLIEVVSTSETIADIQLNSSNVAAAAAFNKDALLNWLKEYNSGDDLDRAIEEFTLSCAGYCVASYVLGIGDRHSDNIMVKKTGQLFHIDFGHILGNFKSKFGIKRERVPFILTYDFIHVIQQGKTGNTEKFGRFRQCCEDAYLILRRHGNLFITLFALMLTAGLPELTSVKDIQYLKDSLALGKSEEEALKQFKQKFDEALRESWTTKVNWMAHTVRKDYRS
T1 sequence (P27986 whole entry partner, species assumed): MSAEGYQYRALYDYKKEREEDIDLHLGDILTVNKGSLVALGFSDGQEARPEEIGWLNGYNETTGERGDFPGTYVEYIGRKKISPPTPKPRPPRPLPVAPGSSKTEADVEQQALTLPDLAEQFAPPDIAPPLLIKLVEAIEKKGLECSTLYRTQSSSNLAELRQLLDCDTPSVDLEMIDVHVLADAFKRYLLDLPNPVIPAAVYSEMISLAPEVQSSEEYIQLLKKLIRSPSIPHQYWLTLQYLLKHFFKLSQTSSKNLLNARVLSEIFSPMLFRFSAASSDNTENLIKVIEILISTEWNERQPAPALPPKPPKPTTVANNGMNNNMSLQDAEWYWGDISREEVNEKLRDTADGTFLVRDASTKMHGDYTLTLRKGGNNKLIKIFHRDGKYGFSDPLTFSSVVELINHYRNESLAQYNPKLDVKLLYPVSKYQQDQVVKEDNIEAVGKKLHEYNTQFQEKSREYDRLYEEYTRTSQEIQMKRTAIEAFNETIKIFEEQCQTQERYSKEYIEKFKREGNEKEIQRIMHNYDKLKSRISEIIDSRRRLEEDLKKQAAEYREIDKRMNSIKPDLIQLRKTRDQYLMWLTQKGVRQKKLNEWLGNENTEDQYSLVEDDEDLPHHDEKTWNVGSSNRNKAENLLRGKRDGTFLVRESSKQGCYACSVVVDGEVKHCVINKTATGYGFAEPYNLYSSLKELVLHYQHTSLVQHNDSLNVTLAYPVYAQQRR

Consider `CN1CCC(c2ccccc2CC(C)(C)Nc2nc(N3CCOCC3)nc(-n3c(C(F)F)nc4ccccc43)n2)CC1` [Compound A35, 4-(2-(difluoromethyl)-1H-benzo[d]imidazol-1-yl)-N-(2-methyl-1-(2-(1-methylpiperidin-4-yl)phenyl)propan-2-yl)-6-morpholino-1,3,5-triazin-2-amine], for which the results for the half-maximal inhibitory concentration (IC50) in experiment [1] and in experiment [2] were 200 to 500 nM and more than 500 nM, respectively. Moreover, the α/β ratio entry in experiment [1] is listed as “B’”.

Consider `CC(C)(Cc1cccc(F)c1)Nc1nc(N2CCOCC2)nc(-n2c(C(F)F)nc3ccccc32)n1` [Compound A39, 4-(2-(difluoromethyl)-1H-benzo[d]imidazol-1-yl)-N-(1-(3-fluorophenyl)-2-methylpropan-2-yl)-6-morpholino-1,3,5-triazin-2-amine], for which, in experiment [1], the IC50 was not above 100 nM and the α/β ratio entry was “A’”. Besides, the concentration for half-maximal inhibition (IC50) in experiment [2] is more than 500 nM.

For `CC(C)(Cc1ccccc1-c1cccnc1)Nc1nc(N2CCOCC2)nc(-n2c(C(F)F)nc3ccccc32)n1` [Compound A40, 4-(2-(difluoromethyl)-1H-benzo[d]imidazol-1-yl)-N-(2-methyl-1-(2-(pyridin-3-yl)phenyl)propan-2-yl)-6-morpholino-1,3,5-triazin-2-amine], the IC50 is not above 100 nM in experiment [1] and more than 500 nM in experiment [2]. In addition, the α/β ratio result in experiment [1] was “B’”.

On to `COc1cc(-c2ccccc2CC(C)(C)Nc2nc(N3CCOCC3)nc(-n3c(C(F)F)nc4ccccc43)n2)ccn1` [Compound A41, 4-(2-(difluoromethyl)-1H-benzo[d]imidazol-1-yl)-N-(1-(2-(2-methoxypyridin-4-yl)phenyl)-2-methylpropan-2-yl)-6-morpholino-1,3,5-triazin-2-amine], for which, in experiment [1], the IC50 is more than 500 nM and the α/β ratio entry is on record as “D’”. Besides, the 50% inhibitory concentration (IC50) in experiment [2] was more than 500 nM.

As to `Cc1cc(-c2ccccc2CC(C)(C)Nc2nc(N3CCOCC3)nc(-n3c(C(F)F)nc4ccccc43)n2)ccn1` [Compound A43, 4-(2-(difluoromethyl)-1H-benzo[d]imidazol-1-yl)-N-(2-methyl-1-(2-(2-methylpyridin-4-yl)phenyl)propan-2-yl)-6-morpholino-1,3,5-triazin-2-amine], in experiment [1], the half-inhibitory concentration (IC50) is not above 100 nM and the α/β ratio entry was “A’”. For the same compound, in experiment [2], the IC50 was more than 500 nM.

Take `CC(C)(Cc1ccccc1-c1cn[nH]c1)Nc1nc(N2CCOCC2)nc(-n2c(C(F)F)nc3ccccc32)n1` [Compound A44, 4-(2-(difluoromethyl)-1H-benzo[d]imidazol-1-yl)-N-(1-(2-(1H-pyrazol-4-yl)phenyl)-2-methylpropan-2-yl)-6-morpholino-1,3,5-triazin-2-amine]: in experiment [1], the IC50 is not above 100 nM and the α/β ratio entry is listed as “A’”. Besides, the IC50 in experiment [2] is more than 500 nM.

Consider `Cn1cc(-c2ccccc2CC(C)(C)Nc2nc(N3CCOCC3)nc(-n3c(C(F)F)nc4ccccc43)n2)cn1` [Compound A45, 4-(2-(difluoromethyl)-1H-benzo[d]imidazol-1-yl)-N-(2-methyl-1-(2-(1-methyl-1H-pyrazol-4-yl)phenyl)propan-2-yl)-6-morpholino-1,3,5-triazin-2-amine], for which the IC50 was not above 100 nM in experiment [1] and 200 to 500 nM in experiment [2]. In experiment [1], the α/β ratio result is on record as “A’”.

Take `Cn1nccc1-c1ccccc1CC(C)(C)Nc1nc(N2CCOCC2)nc(-n2c(C(F)F)nc3ccccc32)n1` [Compound A46, 4-(2-(difluoromethyl)-1H-benzo[d]imidazol-1-yl)-N-(2-methyl-1-(2-(1-methyl-1H-pyrazol-5-yl)phenyl)propan-2-yl)-6-morpholino-1,3,5-triazin-2-amine]: in experiment [1], the IC50 is not above 100 nM and the α/β ratio result is “A’”. For the same compound, the IC50 in experiment [2] was more than 500 nM.

For `Cc1cccc(CC(C)(C)Nc2nc(N3CCOCC3)nc(-n3c(C(F)F)nc4ccccc43)n2)c1` [Compound A49, 4-(2-(difluoromethyl)-1H-benzo[d]imidazol-1-yl)-N-(2-methyl-1-m-tolylpropan-2-yl)-6-morpholino-1,3,5-triazin-2-amine], in experiment [1], the half-maximal inhibitory concentration (IC50) is not above 100 nM and the α/β ratio result is reported as “A’”. The half-maximal inhibitory concentration (IC50) in experiment [2] is more than 500 nM.

As for `COc1cc(CC(C)(C)Nc2nc(N3CCOCC3)nc(-n3c(C(F)F)nc4ccccc43)n2)ccc1F` [Compound A50, 4-(2-(difluoromethyl)-1H-benzo[d]imidazol-1-yl)-N-(1-(4-fluoro-3-methoxyphenyl)-2-methylpropan-2-yl)-6-morpholino-1,3,5-triazin-2-amine], in experiment [1], the concentration for half-maximal inhibition (IC50) is not above 100 nM and the α/β ratio result is reported as “B’”. Besides, in experiment [2], the IC50 was more than 500 nM.

As for `CC(C)(Cc1ccc(F)cc1F)Nc1nc(N2CCOCC2)nc(-n2c(C(F)F)nc3ccccc32)n1` [Compound A51, 4-(2-(difluoromethyl)-1H-benzo[d]imidazol-1-yl)-N-(1-(2,4-difluorophenyl)-2-methylpropan-2-yl)-6-morpholino-1,3,5-triazin-2-amine], in experiment [1], the concentration for half-maximal inhibition (IC50) is more than 500 nM and the α/β ratio result is listed as “D’”. Further, in experiment [2], the concentration for half-maximal inhibition (IC50) was more than 500 nM.

With `CC(C)(Cc1c(F)cccc1F)Nc1nc(N2CCOCC2)nc(-n2c(C(F)F)nc3ccccc32)n1` [Compound A52, 4-(2-(difluoromethyl)-1H-benzo[d]imidazol-1-yl)-N-(1-(2,6-difluorophenyl)-2-methylpropan-2-yl)-6-morpholino-1,3,5-triazin-2-amine], in experiment [1], the IC50 is more than 500 nM and the α/β ratio result is “D’”. In experiment [2], the IC50 is more than 500 nM.

Regarding `CC(C)(Cc1ccccc1-c1ccccc1F)Nc1nc(N2CCOCC2)nc(-n2c(C(F)F)nc3ccccc32)n1` [Compound A59, 4-(2-(difluoromethyl)-1H-benzo[d]imidazol-1-yl)-N-(1-(2′-fluorobiphenyl-2-yl)-2-methylpropan-2-yl)-6-morpholino-1,3,5-triazin-2-amine], in experiment [1], the IC50 lay in the range of 200 to 500 nM and the α/β ratio result is listed as “C’”. Moreover, the concentration for half-maximal inhibition (IC50) in experiment [2] was more than 500 nM.

Regarding `Cc1ccccc1-c1ccccc1CC(C)(C)Nc1nc(N2CCOCC2)nc(-n2c(C(F)F)nc3ccccc32)n1` [Compound A60, 4-(2-(difluoromethyl)-1H-benzo[d]imidazol-1-yl)-N-(2-methyl-1-(2′-methylbiphenyl-2-yl)propan-2-yl)-6-morpholino-1,3,5-triazin-2-amine], in experiment [1], the IC50 was not above 100 nM and the α/β ratio entry is given as “A’”. Moreover, in experiment [2], the IC50 is more than 500 nM.

As for `CC(C)(Cc1ccccc1-c1ccccc1Cl)Nc1nc(N2CCOCC2)nc(-n2c(C(F)F)nc3ccccc32)n1` [Compound A61, 4-(2-(difluoromethyl)-1H-benzo[d]imidazol-1-yl)-N-(1-(6′-chlorobiphenyl-2-yl)-2-methylpropan-2-yl)-6-morpholino-1,3,5-triazin-2-amine], in experiment [1], the half-maximal inhibitory concentration (IC50) is not above 100 nM and the α/β ratio entry is listed as “A’”. In experiment [2], the IC50 is more than 500 nM.

For the compound `CC(C)(Cc1ccccc1-c1cccnc1F)Nc1nc(N2CCOCC2)nc(-n2c(C(F)F)nc3ccccc32)n1` [Compound A62], in experiment [1], the IC50 was more than 500 nM and the α/β ratio entry was “D’”. In experiment [2], the IC50 is more than 500 nM.

Take `CC(C)(Cc1ccccc1-c1cncnc1)Nc1nc(N2CCOCC2)nc(-n2c(C(F)F)nc3ccccc32)n1` [Compound A63, 4-(2-(difluoromethyl)-1H-benzo[d]imidazol-1-yl)-N-(2-methyl-1-(2-(pyrimidin-5-yl)phenyl)propan-2-yl)-6-morpholino-1,3,5-triazin-2-amine]: the half-maximal inhibitory concentration (IC50) is not above 100 nM in experiment [1] and more than 500 nM in experiment [2]. Besides, in experiment [1], the α/β ratio entry is recorded as “D’”.
